Like-named read-outs stand apart in the source and are kept apart here.
Columns and labels:
[1] = test system: CFTR; format: cell-based, human; settings: no LV
Experimental: To analyse the functionality of rSIV.F/HN-CFTR-expressed channels, CFTR-mediated chloride current was measured in an Ussing chamber using rSIV.F/HN-CFTR (vGM058) transduced ALI cultures. First, sodium channels (ENaC) were blocked using amiloride, followed by stimulation of CFTR using forskolin and the change in short circuit current (Δlsc) was calculated (both peak and plateau values). In some experiments, ivacaftor, a small molecule CFTR potentiator which increases channel open probability, was added for additional stimulation of CFTR current. Finally, the chloride current was blocked with CFTR-Inhibitor 172 (FIG. 3D).
To compare the functionality of vGM058 and vGM244, CFTR-mediated chloride current was measured in an Ussing chamber using class II ALI cultures transduced with both vGM058 and vGM244.
To analyse the functionality of rSIV.F/HN-CFTR-expressed channels, CFTR-mediated chloride current was measured in an Ussing chamber using rSIV.F/HN-CFTR (vGM244) transduced class II ALI cultures (Table 3).

[2] = biological target: CFTR (Homo sapiens, UniProt P13569); format: cell-based; settings: no LV
Chain of CFTR (Homo sapiens, UniProt P13569) (P13569 whole entry): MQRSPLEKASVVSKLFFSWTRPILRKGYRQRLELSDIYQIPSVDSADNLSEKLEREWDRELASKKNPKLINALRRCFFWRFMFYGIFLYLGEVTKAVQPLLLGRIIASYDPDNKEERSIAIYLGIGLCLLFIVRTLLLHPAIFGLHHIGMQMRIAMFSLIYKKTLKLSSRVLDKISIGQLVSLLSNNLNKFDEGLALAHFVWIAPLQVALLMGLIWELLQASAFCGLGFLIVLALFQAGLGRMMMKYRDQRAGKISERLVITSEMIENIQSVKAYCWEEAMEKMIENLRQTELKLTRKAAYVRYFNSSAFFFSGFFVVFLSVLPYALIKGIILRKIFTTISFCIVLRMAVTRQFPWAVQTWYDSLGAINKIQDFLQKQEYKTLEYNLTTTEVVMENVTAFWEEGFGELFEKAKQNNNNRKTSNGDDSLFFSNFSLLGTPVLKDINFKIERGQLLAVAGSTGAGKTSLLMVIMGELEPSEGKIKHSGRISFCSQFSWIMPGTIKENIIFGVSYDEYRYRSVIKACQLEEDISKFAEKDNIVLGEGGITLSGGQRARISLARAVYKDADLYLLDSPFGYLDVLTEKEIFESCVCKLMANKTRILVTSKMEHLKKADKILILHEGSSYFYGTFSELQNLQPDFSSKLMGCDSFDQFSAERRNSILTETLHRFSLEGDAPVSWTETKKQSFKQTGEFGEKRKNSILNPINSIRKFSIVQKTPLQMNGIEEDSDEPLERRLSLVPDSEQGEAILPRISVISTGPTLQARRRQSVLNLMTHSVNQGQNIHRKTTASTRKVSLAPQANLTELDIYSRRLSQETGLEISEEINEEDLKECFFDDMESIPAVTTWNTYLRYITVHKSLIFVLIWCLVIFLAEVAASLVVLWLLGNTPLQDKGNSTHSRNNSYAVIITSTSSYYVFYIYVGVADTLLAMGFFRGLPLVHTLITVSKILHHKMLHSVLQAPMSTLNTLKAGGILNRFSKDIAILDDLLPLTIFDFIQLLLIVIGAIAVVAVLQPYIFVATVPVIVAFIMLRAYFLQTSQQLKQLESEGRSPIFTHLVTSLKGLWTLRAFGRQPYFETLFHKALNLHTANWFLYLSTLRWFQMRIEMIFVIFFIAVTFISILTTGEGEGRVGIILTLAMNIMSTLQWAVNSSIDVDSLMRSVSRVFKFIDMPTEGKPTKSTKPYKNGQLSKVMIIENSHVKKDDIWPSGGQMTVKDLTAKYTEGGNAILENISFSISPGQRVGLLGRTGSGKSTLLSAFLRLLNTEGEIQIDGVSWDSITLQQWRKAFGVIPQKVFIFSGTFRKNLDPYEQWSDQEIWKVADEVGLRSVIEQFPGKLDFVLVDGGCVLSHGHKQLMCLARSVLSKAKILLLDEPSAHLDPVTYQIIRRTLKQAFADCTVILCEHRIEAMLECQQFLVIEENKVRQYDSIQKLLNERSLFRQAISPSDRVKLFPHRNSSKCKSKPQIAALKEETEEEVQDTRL

[3] = Table 1, Class II F508del/F508del ALI, vGM058 study
[4] = Table 3, Class II F508del/F508del ALI, vGM244 study
[5] = Table 2, Class I CFTR KO ALI, vGM058 study
[6] = Table 4, Class I CFTR KO ALI, vGM244 study

How did the ΔCFTR-inh172peak [1, 3] turn out when `CC(C)(C)c1cc(C(C)(C)C)c(NC(=O)c2c[nH]c3ccccc3c2=O)cc1O` [Iva, ivacaftor] was run?
The ΔCFTR-inh172peak was −2.1 ± 0.3.

And the ΔCFTR-inh172plateau [1, 3]?
Its ΔCFTR-inh172plateau is −2.1 ± 0.3.

And the ΔFskpeak [1, 3]?
Its ΔFskpeak is −0.1 ± 0.3.

And the ΔFskplateau [1, 3]?
The ΔFskplateau was −0.1 ± 0.3.

What about the ΔCFTR-inh172peak [1, 4] of the same compound?
Its ΔCFTR-inh172peak is −1.6 ± 0.1.

What about the ΔCFTR-inh172plateau [1, 4] of the same compound?
The ΔCFTR-inh172plateau was −1.6 ± 0.1.

What about the ΔFskpeak [1, 4] of the same compound?
The ΔFskpeak was 1.0 ± 0.3.

What about the ΔFskplateau [1, 4] of the same compound?
The ΔFskplateau was 1.0 ± 0.3.

And the ΔCFTR-inh172peak [2, 5]?
Its ΔCFTR-inh172peak is −3.0 ± 0.2.

What about the ΔCFTR-inh172plateau [2, 5] of the same compound?
The ΔCFTR-inh172plateau was −3.0 ± 0.2.

What about the ΔFskpeak [2, 5] of the same compound?
Its ΔFskpeak is −1.9 ± 0.1.

And the ΔFskplateau [2, 5]?
Its ΔFskplateau is −1.9 ± 0.1.

And the ΔCFTR-inh172peak [2, 6]?
Its ΔCFTR-inh172peak is −0.2 ± 0.2.

And the ΔCFTR-inh172plateau [2, 6]?
The ΔCFTR-inh172plateau was −0.2 ± 0.2.

And the ΔFskpeak [2, 6]?
Its ΔFskpeak is −0.7 ± 0.2.

And the ΔFskplateau [2, 6]?
The ΔFskplateau was −0.7 ± 0.2.

— patent US20240024515A1, “COMBINATION TREATMENT” (priority 2022, published 2024)
